This is an account of results in patent publication US20240165243A1, “EGFR DEGRADERS AND METHODS OF USE” (BeiGene Switzerland GmbH, priority 2021, published 2024).

The test system of one experiment is EGFR (Del19/T790M/C797S). The experiment in a line: Cell degradation HTRF assay, H1975-clone #28 cells. The following applies: H1975-clone #28 (Del19/T790M/C797S) cells, 16 h treatment; for DC50: HTRF, read-out: H1975-clone#28 DTC DC50; for H1975-clone#28 DTC Dmax (%): maximum percentage of degradation. Format: cell-based. Summed up:
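H1975 clones #25 and #28 were treated 16 h at 37° C, 5% CO2 with 8 doses (top 10 uM, 5-fold dilution) in 0.2% DMSO medium. EGFR in lysates read by HTRF (665/620 nm); degradation % relative to DMSO high control; DC50 from 4-parameter fit, Dmax = maximal degradation.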
A general note: Time-resolved FRET reads energy transfer from a long-lived donor to a nearby acceptor.

Another experiment addresses EGFR (L858R/T790M/C797S) (Homo sapiens, UniProt P00533, C797S/L858R/T790M). The experiment in a line: Cell degradation HTRF assay, H1975-clone #25 cells. Format: cell-based. The settings on record: H1975-clone #25 (L858R/T790M/C797S) cells, 16 h treatment; for DC50: HTRF, read-out: H1975-clone#25 LTC DC50; for Dmax: maximum percentage of degradation, read-out: H1975-clone#25 LTC Dmax (%). As for the experimental part:
Cell Degradation of Example 124-189
H1975-#28 and H1975-#25 cells are treated with compounds diluted in 0.2% DMSO cell culture medium on day 2, incubate for 16 h, 37° C., 5% CO2. the final concentration of compounds in all assay is start with 10 uM, 5-fold dilution, total 8 doses were included.
After 16 h treatment, add HTRF lysis buffer to each well; seal the plate and incubate 1 hour at room temperature on a plate shaker; Once the cells are lysed, 16 μL of cell lysate are transferred to a PE 384-well HTRF detection plate; 4 μL of pre-mixed HTRF antibodies are added to each well; Cover the plate with a plate sealer, spin 1000 rpm for 1 min, Incubate overnight at room temperature; Read on BMG PheraStar with HTRF protocol (337 nm-665 nm-620 nm).
The inhibition (degradation) percentage of the compound was calculated by the following equation:
Inhibition percentage of Compound=100−100×(Signal−low control)/(High control−low control), wherein signal=each test compound group.
High control=Cell group with added DMSO and without compound, indicating microplate readings without EGFR degradation;
Dmax is the maximum percentage of inhibition (degradation).
The IC50 (DC50) value of a compound can be obtained by fitting the following equation
Y=Bottom+(TOP−Bottom)/(1+((IC50/X)^hillslope))
Wherein, X and Y are known values, and IC50, Hillslope, Top and Bottom are the parameters obtained by fitting with software. Y is the inhibition percentage (calculated from the equation), X is the concentration of the compound; IC50 is the concentration of the compound when the 50% inhibition is reached. The smaller the IC50 value is, the stronger the inhibitory ability of the compound is. Vice versa, the higher the IC50 value is, the weaker the ability the inhibitory ability of the compound is; Hillslope represents the slope of the fitted curve, generally around 1*; Bottom represents the minimum value of the curve obtained by data fitting, which is generally 0%±20%; Top represents the maximum value of the curve obtained by data fitting, which is generally 100%±20%. The experimental data were fitted by calculating and analyzing with Dotmatics data analysis software. When Dmax<50%, DC50 will be automatically assigned as larger than […].

The structures appear in SMILES notation.

Chain of EGFR (L858R/T790M/C797S) (P00533 25-1210 T790M/C797S/L858R): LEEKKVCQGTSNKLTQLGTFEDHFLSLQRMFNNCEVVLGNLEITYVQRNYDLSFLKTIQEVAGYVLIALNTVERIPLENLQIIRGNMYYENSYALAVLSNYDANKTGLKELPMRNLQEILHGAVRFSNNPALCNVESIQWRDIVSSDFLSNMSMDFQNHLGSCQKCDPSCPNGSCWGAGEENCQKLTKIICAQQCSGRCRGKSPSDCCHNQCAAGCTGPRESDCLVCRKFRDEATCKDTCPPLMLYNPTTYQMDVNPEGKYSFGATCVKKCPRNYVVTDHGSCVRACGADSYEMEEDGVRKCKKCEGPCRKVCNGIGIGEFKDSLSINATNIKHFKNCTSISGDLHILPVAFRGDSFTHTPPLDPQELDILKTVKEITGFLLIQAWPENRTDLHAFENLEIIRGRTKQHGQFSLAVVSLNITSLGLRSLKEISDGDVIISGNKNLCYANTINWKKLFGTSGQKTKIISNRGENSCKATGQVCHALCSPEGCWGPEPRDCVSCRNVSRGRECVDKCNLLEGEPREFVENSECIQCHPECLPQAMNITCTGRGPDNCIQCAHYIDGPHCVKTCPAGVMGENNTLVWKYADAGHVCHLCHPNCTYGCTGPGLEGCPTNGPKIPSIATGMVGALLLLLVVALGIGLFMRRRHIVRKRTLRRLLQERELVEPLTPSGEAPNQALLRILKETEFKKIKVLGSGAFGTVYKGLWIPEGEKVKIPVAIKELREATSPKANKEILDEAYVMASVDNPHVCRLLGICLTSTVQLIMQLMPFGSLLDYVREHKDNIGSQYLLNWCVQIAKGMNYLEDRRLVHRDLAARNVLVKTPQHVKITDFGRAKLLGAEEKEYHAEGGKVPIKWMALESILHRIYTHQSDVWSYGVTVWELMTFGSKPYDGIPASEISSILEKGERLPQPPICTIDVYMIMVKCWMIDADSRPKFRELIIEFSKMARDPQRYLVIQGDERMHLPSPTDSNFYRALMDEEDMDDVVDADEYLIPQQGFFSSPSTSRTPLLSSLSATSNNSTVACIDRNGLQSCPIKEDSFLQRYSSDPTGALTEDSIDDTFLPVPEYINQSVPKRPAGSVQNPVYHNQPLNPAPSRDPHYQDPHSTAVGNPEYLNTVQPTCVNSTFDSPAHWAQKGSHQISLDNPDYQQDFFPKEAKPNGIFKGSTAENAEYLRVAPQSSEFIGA

Usually DC50 stands for the midpoint of the concentration-degradation curve. A word on the Dmax: it is the largest share of the target that was removed. On to `CCOc1cc(N2CCC(N3CCN(CCc4cccc5c4n(C)c(=O)n5C4CCC(=O)NC4=O)CC3)CC2)c(CC)cc1Nc1ncc(Br)c(Nc2cnc3cc(F)ccc3c2P(C)(C)=O)n1` (centres unmarked) [Example 147, 3-(4-(2-(4-(1-(4-((5-bromo-4-((4-(dimethylphosphoryl)-7-fluoroquinolin-3-yl)amino)pyrimidin-2-yl)amino)-5-ethoxy-2-ethylphenyl)piperidin-4-yl)piperazin-1-yl)ethyl)-3-methyl-2-oxo-2,3-dihydro-1H-benzol[d]imidazol-1-yl) piperidine-2,6-dione], for which, in the experiment on EGFR (Del19/T790M/C797S), the DC50 worked out at 0.4 nM and the “H1975-clone#28 DTC Dmax (%)” value amounted to 84%. Besides, on EGFR (L858R/T790M/C797S), the DC50 is 15.3 nM and the Dmax was found to be 77%.
In the same order, the values of `CCc1cc(Nc2ncc(Br)c(Nc3cnc4ccc(C(F)(F)F)cc4c3P(C)(C)=O)n2)c(OC)cc1N1CCC(N2CCN(CCc3cccc4c3n(C)c(=O)n4C3CCC(=O)NC3=O)CC2)CC1` (centres unmarked) [Example 166, 3-(4-(2-(4-(1-(4-((5-bromo-4-((4-(dimethylphosphoryl)-6-(trifluoromethyl)quinolin-3-yl)amino)pyrimidin-2-yl)amino)-2-ethyl-5-methoxyphenyl)piperidin-4-yl)piperazin-1-yl)ethyl)-3-methyl-2-oxo-2,3-dihydro-1H-benzo[d]imidazol-1-yl)piperidine-2,6-dione] are 2.8 nM, 80%, 4.2 nM and 81%.
